The values that follow come from patent US12262710B2, “Fungicidal compounds” (SYNGENTA CROP PROTECTION AG, priority 2019, dated 2025).

The test system of assay [1] is Puccinia recondita f. sp. tritici. The assay can be described thus: Puccinia recondita (brown rust), curative, wheat leaf segments. The settings on record: foliar, 192 h, sprayed 1 day after inoculation, 8 dpi, compared to untreated control. In kind it is in vivo. On the procedure:
Wheat leaf segments are placed on agar in multiwell plates (24-well format). The leaf segments are inoculated with a spore suspension of the fungus and sprayed with test solutions 1 day after inoculation. After appropriate incubation the activity of a compound is assessed 8 dpi (days after inoculation) as curative fungicidal activity.

The next assay has as its system Glomerella lagenarium. The assay can be described thus: Glomerella lagenarium syn. Colletotrichum lagenarium (anthracnose of cucurbits), liquid culture growth inhibition. In kind it is cell-based. The settings on record: Colletotrichum orbiculare, nutrient broth (PDB), 72 hrs, photometric at 620 nm, compared to untreated control. The procedure:
Glomerella lagenarium Syn. Colletotrichum lagenarium (Anthracnose of Cucurbits): Conidia of the fungus from cryogenic storage were directly mixed into nutrient broth (PDB potato dextrose broth). A DMSO solution of the test compounds was placed into a microtiter plate (96-well format) and the nutrient broth containing the fungal spores was added to it. The test plates were incubated at 24° C. and the inhibition of growth was determined photometrically after 72 hrs at 620 nm. […]

The test system of another assay is Plasmopara viticola. The assay is described as follows: Plasmopara viticola (downy mildew of grapevine), grape vine leaf disks, preventive. In kind it is in vivo. The settings on record: foliar, 168 h, 7 dpi, compared to untreated control. The procedure:
Grape vine leaf disks are placed on agar in multiwell plates (24-well format) and sprayed with test solutions. After drying, the leaf disks are inoculated with a spore suspension of the fungus. After appropriate incubation the activity of a compound is assessed 7 dpi (days after inoculation) as preventive fungicidal activity.

Assay [2] has as its system Puccinia recondita f. sp. tritici. The assay is described as follows: Puccinia recondita (brown rust), preventative, wheat leaf segments. It counts as in vivo. The settings on record: foliar, 192 h, 8 dpi, compared to untreated control. The procedure:
Wheat leaf segments are placed on agar in multiwell plates (24-well format) and sprayed with test solutions. After drying, the leaf segments are inoculated with a spore suspension of the fungus. After appropriate incubation the activity of a compound is assessed 8 dpi (days after inoculation) as preventative fungicidal activity.

For assay [3], the system named is Erysiphe graminis f. sp. tritici. The assay is described as follows: Erysiphe graminis f. sp. tritici (wheat powdery mildew), wheat leaf segments, preventive. In kind it is in vivo. The settings on record: Blumeria graminis, foliar, 168 h, 7 dpi, compared to untreated control. The procedure: Wheat leaf segments are placed on agar in multiwell plates (24-well format) and sprayed with test solutions. After drying, the leaf disks are inoculated with spores of the fungus. After appropriate incubation the activity of a compound is assessed 7 dpi (days post inoculation) as preventive fungicidal activity.

The test system of another assay is Phakopsora pachyrhizi. The assay can be described thus: Phakopsora pachyrhizi (soybean rust), soybean leaf disks, preventive. It counts as in vivo. As to conditions: foliar, 288 h, approx. 12 dpi, compared to untreated control. On the procedure: Soybean leaf disks are placed on agar in multiwell plates (24-well format) and sprayed with test solutions. After drying, the leaf disks are inoculated with a spore suspension of the fungus. After appropriate incubation the activity of a compound is assessed approx. 12 dpi (days after inoculation) as preventive fungicidal activity.

In a further assay the test system is Pyricularia oryzae. The assay is described as follows: whole plant or invertebrate. It counts as in vivo. The settings on record: foliar, 120 h, read-out: control of Pyricularia oryzae.
For another assay, the system named is Monographella nivalis. The assay is described as follows: Monographella nivalis syn. Microdochium nivale (snow mould, foot rot of cereals), liquid culture growth inhibition. In kind it is cell-based. The settings on record: nutrient broth (PDB), 72 hrs, photometric at 620 nm, compared to untreated control. On the procedure:
Conidia of the fungus from cryogenic storage were directly mixed into nutrient broth (PDB potato dextrose broth). A DMSO solution of the test compounds was placed into a microtiter plate (96-well format) and the nutrient broth containing the fungal spores was added to it. The test plates were incubated at 24° C. and the inhibition of growth was determined photometrically after 72 hrs at 620 nm. […] Cercospora arachidicola (Brown Leaf Spot of Peanut): […]

The next assay deals with Mycosphaerella arachidis. The assay can be described thus: Mycosphaerella arachidis syn. Cercospora arachidicola (brown leaf spot of peanut), liquid culture growth inhibition. In kind it is cell-based. As to conditions: nutrient broth (PDB), approximately 5-6 days, photometric at 620 nm, compared to untreated control. On the procedure: Conidia of the fungus from cryogenic storage were directly mixed into nutrient broth (PDB potato dextrose broth). A DMSO solution of the test compounds was placed into a microtiter plate (96-well format) and the nutrient broth containing the fungal spores was added to it. The test plates were incubated at 24° C. and the inhibition of growth was determined photometrically after approximately 5-6 […] at 620 nm.

The subject of the next assay is Alternaria solani. The assay is described as follows: Alternaria solani (early blight of tomatoes), tomato leaf disks. In kind it is in vivo. As to conditions: foliar, inoculated 2 days after application, compared to untreated control. On the procedure:
Alternaria solani (Early Blight of Tomatoes) Tomato leaf disks are placed on agar in multiwell plates (24-well format) and sprayed with the formulated test compound diluted in water. The leaf disks are inoculated with a spore suspension of the fungus 2 days after application. The inoculated leaf disks are incubated at 23° C./21° C.

A further assay has as its system Phytophthora infestans. The assay is described as follows: whole plant or invertebrate. In kind it is in vivo. As to conditions: in Solanum lycopersicum, foliar, 96 h, read-out: control of Phytophthora infestans.

Usually inhibition of growth stands for how much of the control response was suppressed. Lower therefore signals a weak effect. Turning to `CO/C=C(\Oc1cc(C2=CCCCC2)ccc1C)C(=O)OC` [F.2, methyl (Z)-2-[5-(cyclohexen-1-yl)-2-methyl-phenoxy]-3-methoxy-prop-2-enoate], the pest or weed control at 200 ppm (in assay [1]; with Plasmopara viticola; in assay [2]; in [3]) was no less than 80% throughout. The same molecule had an inhibition of growth at 20 ppm in the assay on Glomerella lagenarium of no less than 80%. The pest or weed control at 60 ppm with Phakopsora pachyrhizi was no less than 70%.
With `CO/C=C(\Oc1cc(C2CCC(=NOC)CC2)ccc1C)C(=O)OC` (stereo not drawn) [E.20, methyl (Z)-3-methoxy-2-[5-(4-methoxyimino-cyclohexyl)-2-methyl-phenoxy]prop-2-enoate], the pest or weed control at 200 ppm (with Pyricularia oryzae; in [1]; with Plasmopara viticola; in assay [2]; in assay [3]; in the assay with Alternaria solani) was no less than 80% throughout. In addition, the inhibition of growth at 20 ppm with Glomerella lagenarium, with Monographella nivalis and in the assay on Mycosphaerella arachidis was no less than 80% each time. This molecule showed a pest or weed control at 60 ppm with Phakopsora pachyrhizi of no less than 70%.
As for `CO/C=C(\Oc1cc(C2=CCC(C(F)F)CC2)ccc1C)C(=O)OC` (stereo not drawn) [F.7, methyl (Z)-2-[5-[4-(difluoromethyl)cyclohexen-1-yl]-2-methyl-phenoxy]-3-methoxy-prop-2-enoate], the pest or weed control at 200 ppm (in assay [1]; in the assay with Plasmopara viticola; in assay [2]; in assay [3]; with Alternaria solani) was no less than 80% throughout. The inhibition of growth at 20 ppm in the assay with Glomerella lagenarium, with Monographella nivalis and in the assay with Mycosphaerella arachidis was no less than 80% each time.
Take `CO/C=C(\Oc1cc(C2CCC2)ccc1C)C(=O)OC` [E.12, methyl (Z)-2-(5-cyclobuty1-2-methyl-phenoxy)-3-methoxy-prop-2-enoate]: the pest or weed control at 200 ppm (with Pyricularia oryzae; in assay [1]; in the assay on Plasmopara viticola; in assay [2]; in assay [3]) was no less than 80% throughout. The inhibition of growth at 20 ppm with Glomerella lagenarium, in the assay with Monographella nivalis and in the assay on Mycosphaerella arachidis was no less than 80% in each case. Moreover, in the assay with Phakopsora pachyrhizi, the pest or weed control at 60 ppm was no less than 70%.
On to `CCON=C1CCC(c2ccc(C)c(O/C(=C\OC)C(=O)OC)c2)CC1` (stereo not drawn) [E.21, methyl (Z)-2-[5-(4-ethoxyiminocyclohexyl)-2-methyl-phenoxy]-3-methoxy-prop-2-enoate], for which the pest or weed control at 200 ppm (with Pyricularia oryzae; in [1]; in the assay with Plasmopara viticola; in [2]; in assay [3]) was no less than 80% in each case. In addition, the inhibition of growth at 20 ppm with Glomerella lagenarium, in the assay with Monographella nivalis and in the assay on Mycosphaerella arachidis was no less than 80% each time. In addition, the pest or weed control at 60 ppm with Phakopsora pachyrhizi was no less than 70%.
Turning to `CO/C=C(\Oc1cc(C2CCC(F)(F)CC2)ccc1C)C(=O)OC` [E.6, methyl (Z)-2-[5-(4,4-difluorocyclohexyl)-2-methyl-phenoxy]-3-methoxy-prop-2-enoate], the pest or weed control at 200 ppm (in the assay with Pyricularia oryzae; in the assay on Plasmopara viticola; in assay [2]; in [3]) was no less than 80% each time. Also, the inhibition of growth at 20 ppm in the assay on Glomerella lagenarium, in the assay on Monographella nivalis and in the assay with Mycosphaerella arachidis was no less than 80% in each case.
With `CO/C=C(\Oc1cc(C2CC(C)(C)CCC2=O)ccc1C)C(=O)OC` (stereo not drawn) [E.5, methyl (Z)-2-[5-(5,5-dimethyl-2-oxo-cyclohexyl)-2-methyl-phenoxy]-3-methoxy-prop-2-enoate], the pest or weed control at 200 ppm (with Plasmopara viticola; in [2]; in [3]; in the assay with Phytophthora infestans) was no less than 80% each time.
Regarding `CO/C=C(\Oc1cc(C2=CCCC2)ccc1C)C(=O)OC` [F.4, methyl (Z)-2-[5-(cyclopenten-l-yI)-2-methyl-phenoxy]-3-methoxy-prop-2-enoate], the inhibition of growth at 20 ppm with Glomerella lagenarium, in the assay on Monographella nivalis and in the assay on Mycosphaerella arachidis was no less than 80% throughout. Moreover, the pest or weed control at 200 ppm (in the assay on Plasmopara viticola; in assay [2]; in assay [3]) was no less than 80% in each case. For the same molecule, in the assay on Phakopsora pachyrhizi, the pest or weed control at 60 ppm is no less than 70%.
For the molecule `CO/C=C(\Oc1cc(C2=CCCCC2)c(F)cc1C)C(=O)OC` [F.6, methyl (Z)-2-[5-(cyclohexen-1-yl)-4-fluoro-2-methyl-phenoxy]-3-methoxy-prop-2-enoate], the pest or weed control at 200 ppm (in assay [1]; in the assay with Plasmopara viticola; in assay [2]; in assay [3]) was no less than 80% in each case. For the same molecule, the inhibition of growth at 20 ppm with Glomerella lagenarium, in the assay with Monographella nivalis and with Mycosphaerella arachidis was no less than 80% in each case. For the same molecule, the pest or weed control at 60 ppm in the assay on Phakopsora pachyrhizi was no less than 70%.
As to `CO/C=C(\Oc1cc(C2=CCC(F)(F)CC2)ccc1C)C(=O)OC` [F.3, methyl (Z)-2-[5-(4,4-difluorocyclohexen-1-yl)-2-methyl-phenoxy]-3-methoxy-prop-2-enoate], the inhibition of growth at 20 ppm with Glomerella lagenarium, in the assay on Monographella nivalis and in the assay with Mycosphaerella arachidis was no less than 80% throughout. Also, the pest or weed control at 200 ppm (with Plasmopara viticola; in assay [2]; in assay [3]) was no less than 80% each time. Moreover, in the assay on Phakopsora pachyrhizi, the pest or weed control at 60 ppm is no less than 70%.
For `CO/C=C(\Oc1cc(C2CC2)ccc1C)C(=O)OC` [E.14, methyl (Z)-2-(5-cyclopropy1-2-methyl-phenoxy)-3-methoxy-prop-2-enoate], the inhibition of growth at 20 ppm in the assay on Glomerella lagenarium, in the assay with Monographella nivalis and in the assay on Mycosphaerella arachidis was no less than 80% throughout. Also, the pest or weed control at 200 ppm (in the assay with Plasmopara viticola; in [2]; in assay [3]) was no less than 80% in each case. The molecule further had a pest or weed control at 60 ppm in the assay with Phakopsora pachyrhizi of no less than 70%.
As for `CO/C=C(\Oc1cc(C2CCC(OC(F)F)CC2)ccc1C)C(=O)OC` (stereo not drawn) [E.23, methyl (Z)-2-[5-[4-(difluoromethoxy)cyclohexyl]-2-methyl-phenoxy]-3-methoxy-prop-2-enoate], the pest or weed control at 200 ppm (with Pyricularia oryzae; in the assay on Plasmopara viticola; in assay [2]; in assay [3]; in the assay on Alternaria solani) was no less than 80% in each case. In addition, the inhibition of growth at 20 ppm with Glomerella lagenarium, with Monographella nivalis and in the assay on Mycosphaerella arachidis was no less than 80% throughout.
Consider `CO/C=C(\Oc1cc(C2=CC(C)(C)CCC2=O)ccc1C)C(=O)OC` [F.1, methyl (Z)-2-[5-(3,3-dimethyl-6-oxo-cyclohexen-1-yl)-2-methyl-phenoxy]-3-methoxy-prop-2-enoate], for which the pest or weed control at 200 ppm (with Pyricularia oryzae; in the assay with Plasmopara viticola; in assay [2]; in assay [3]; with Alternaria solani) was no less than 80% in each case. Also, in the assay on Glomerella lagenarium, the inhibition of growth at 20 ppm was no less than 80%.
